Measurements from patent publication US20250270576A1, “AGRICULTURAL COMPOSITIONS AND METHODS OF USING THE SAME” (Arizona Board of Regents on behalf of Arizona State …, priority 2021, published 2025).

Test system: Col-0 plants
Assay: growth of wild type plants in the presence of 2,3 butanediol
Assay type: in vivo, Arabidopsis thaliana
Excerpt: Top left: phenotypes of Col-0 (wild type; Arabidopsis thaliana) and genetically modified plants expressing the transgenic PROTON (H+-) pyrophosphatase in all tissues (AVP1) or in phloem cells only (pCoY), where average yields are AVP1>pCoY>Col-0 (FIG. 7). Left center: differential root acidification capacity of each genotype. Left bottom: 16S rRNA based composition of the root associated microbiomes (RAMs) through principal component analyses. Middle: Metabolomic profile of root exudates of the three plant genotypes, depicted as a heat map of relative concentration (each column a pools n>3 plants). Top right: Enrichment of proportional abundance of query and control pathways in the metagenome of rhizosphere RAMs. Middle right: Effect of exposure to 250 μM 2,3-butanediol on root development of Col-0 plants. Bottom right: mechanistic model for plant-microbe interactions at the base of phenotype enhancement and transferability.
To determine how the plant genotype can be made extensive to the RAM, we made use of a second mutant plant (pCoYMV::AVP1; pCoY hereafter), which overexpresses the H+-PPase in companion cells and sieve elements of the plant's phloem (22). […] We then assessed a second potential driver: root exudates. We determined the root exudate profiles, or exometabolome (23), of the three genotypes when grown under sterility on agar-solidified medium. […]

CC(O)C(C)O (centres unmarked) [2,3 butanediol, 2,3-butanediol]
phenotype in root development of wild type plants (wild type (Col-0) plants exposed to 250 μM 2,3-butanediol (FIG. 3)): AVP1-like, high yield phenotypes | phenotype in shoots of wild type plants (wild type (Col-0) plants grown in the presence of 2,3 butanediol, 250 μM per FIG. 3 legend): AVP1-like, high yield phenotypes
